Data as given in paper PMC6787355, “Purification, kinetic characterization, and site-directed mutagenesis of Methanothermobacter thermautotrophicus RFAP Synthase Produced in Escherichia coli” (AIMS Microbiology, 2019).
Numbering of substitutions follows the chain as printed. In names and notes the source's numbering stands. Several values for one entry are separate records, joined by “and”; a condition that tells them apart may be missing. Equal entries are not always repeated. Where two headings read alike, the source gives them in different places.

How the values were obtained:
[1] = biological target: Methanothermobacter thermautotrophicus β-ribofuranosylaminobenzene 5′-phosphate (RFAP) synthase, wild type, recombinant (Methanothermobacter thermautotrophicus); assay: SEC; Superdex 75 gel filtration column in 50 mM TES, 150 mM KCl, 2 mM DTT, ambient temperature; enzyme eluted after 19 min, corresponding to 68.7 kDa; subunit size from SDS-PAGE
[2] = biological target: T1, wild-type M. thermautotrophicus RFAP synthase (MTH0830) produced in E. coli (Methanothermobacter thermautotrophicus, UniProt O26918); assay: RFAP synthase enzyme assay (azo-dye derivative of RFAP), wild-type recombinant enzyme; type: biochemical; details: for Vmax / Km: 8.8 mM PRPP; for Km: read-out: KM for pABA
T1 sequence (O26918 1-329): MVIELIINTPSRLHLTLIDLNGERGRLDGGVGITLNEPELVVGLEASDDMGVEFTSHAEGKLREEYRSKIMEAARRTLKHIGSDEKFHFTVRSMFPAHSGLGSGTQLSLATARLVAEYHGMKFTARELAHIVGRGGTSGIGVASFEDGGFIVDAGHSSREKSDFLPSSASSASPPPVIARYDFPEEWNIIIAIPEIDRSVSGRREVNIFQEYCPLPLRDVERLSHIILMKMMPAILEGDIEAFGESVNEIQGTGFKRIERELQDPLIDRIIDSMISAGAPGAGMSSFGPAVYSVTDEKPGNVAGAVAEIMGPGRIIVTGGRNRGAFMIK
Experimental: RFAP synthase activity was determined by producing the azo-dye derivative of the product RFAP as described previously [1],[17]. […] From this point on, the amount of enzyme used in activity assays was within the linear range of 8 to 12 µg. […] All assays were carried out under optimal enzymatic conditions in 70 mM PIPES (pH 6.8), 2 mM DTT at 70 °C for 1 h.

[3] = biological target: wild-type MTH0830 RFAP synthase (Methanothermobacter thermautotrophicus, UniProt O26918); assay: Isothermal titration calorimetry, wild-type enzyme; type: binding; details: ITC, 35 °C
Experimental: (§1) The ITC conditions previously established for M. jannaschii RFAP synthase were modified for the RFAP synthase from M. thermautotrophicus. Partially purified wild-type (heat-treated at 65 °C) and variant (heat-treated at 50 °C) RFAP synthases (2–5 mL) were dialyzed against two changes of buffer (250 mL each of 50 mM Tris, 100 mM NaCl, pH 7.6). […] All ITC measurements were carried out using a NANO-ITC isothermal titration calorimeter (TA Instruments, New Castle, DE).
(§2) Following an 1800 s delay, 10 injections of 5 µL of PRPP each were added every 240 seconds with stirring at 300 rpm.

[4] = test system: RFAP synthase from M. thermophila; details: read-out: apparent KM for pABA; cited from earlier work
[5] = test system: RFAP synthase from M. jannaschii; set-up: method as in PMID 9698382, PMID 15262968; details: read-out: apparent KM for pABA; cited from earlier work
[6] = two acidic pKa values; cited from earlier work
[7] = biological target: T2, MTH0830 RFAP synthase D19N variant (Methanothermobacter thermautotrophicus, UniProt O26918, D19N); assay: Isothermal titration calorimetry, D19N variant; type: binding
T2 sequence (O26918 1-329 D19N): T1 sequence (O26918 1-329) with D19N
Experimental: as §1, §2

[8] = biological target: T3, MTH0830 RFAP synthase R26K variant (Methanothermobacter thermautotrophicus, UniProt O26918, R26K); assay: Isothermal titration calorimetry, R26K variant; type: binding
T3 sequence (O26918 1-329 R26K): T1 sequence (O26918 1-329) with R26K
Experimental: as §1, §2

[9] = biological target: RFAP synthase from M. jannaschii; set-up: method as in PMID 15262968; details: read-out: binding constant (KD) for PRPP; cited from earlier work
[10] = substrate: Nc1ccc(C(=O)O)cc1; assay: purified protein, by the assay type
[11] = substrate: Nc1ccc(C(=O)O)cc1; assay: RFAP synthase enzyme assay, R26K variant; type: biochemical, Methanothermobacter thermautotrophicus; details: other: 50 °C, 3 h, pH 6.8, 8.8 mM PRPP
Experimental: RFAP synthase activity was determined by producing the azo-dye derivative of the product RFAP as described previously,[17]. […] From this point on, the amount of enzyme used in activity assays was within the linear range of 8 to 12 µg. […] All assays were carried out under optimal enzymatic conditions in 70 mM PIPES (pH 6.8), 2 mM DTT at 70 °C for 1 h.
Due to the inability of the variants to function at 70 °C, the enzymatic assays comparing variant and wild-type kinetics were run in 70 mM PIPES (pH 6.8) with 2 mM DTT at 50 °C for three hours using a single time-point assay. This is the time period over which the enzyme activities were linear at the lower temperature of 50 °C. For these kinetic studies, the wild-type enzyme was purified in the same manner as the variants and was also examined at 50 °C for three hours.

“Methanothermobacter thermautotrophicus β-ribofuranosylaminobenzene 5′-phosphate (RFAP) synthase, wild type, recombinant (enzyme)” showed a stoichiometry N [1] of 2.

For Nc1ccc(C(=O)O)cc1 [pABA, p-aminobenzoic acid], the Vmax ([2]; 50 °C, 3 h, pABA varied, partially purified) was 1.45 nmol/min/mg and 1.5 nmol/min/mg, the Vmax ([2]; 70 °C, pABA varied 181 µM to 36 mM) was “approximately 190 nmol/min/mg protein” and the “fold higher KM compared to previous homologs” value ([2]; near neutral conditions versus homologs with pH optimum at 5.3) was 26 fold. It also gave a Km ([2]; 50 °C, 3 h, pH 6.8, partially purified without heat step) of 3.9 mM, a Km ([2]; 70 °C, pH 6.8, 1 h, 17.6 mM MgCl2, enzyme purified through Mono Q) of 4.5 mM and a Kd ([3]; in presence of saturating PRPP) of 960 ± 650 µM. The Km [4] was 0.058 mM, the Km [5] was 0.15 mM and the “acidic pKa” value [6] was 4.65 and 4.80.

Work on O=P(O)(O)OC[C@H]1OC(OP(=O)(O)OP(=O)(O)O)[C@H](O)[C@@H]1O (some centres unmarked) [PRPP, phosphoribosyl-pyrophosphate] yielded a Kd ([3]; read-out: KD for PRPP) of 2100 ± 110 µM, a Kd [7] of 2000 ± 300 µM and a Kd [8] of 2400 ± 250 µM. For the same molecule, the Kd [9] was 2000 µM.

B1: wild-type M. thermautotrophicus RFAP synthase (MTH0830) produced in E. coli (Methanothermobacter thermautotrophicus str. Delta H) (protein)
chain: T1 sequence (O26918 1-329)
Work on B1 yielded a Km ([10]; other: 50 °C, 3 h, pH 6.8, 8.8 mM PRPP, partially purified without heat step, 50.0 °C) of 3.9 mM, a Km ([10]; other: 70 °C, pH 6.8, 1 h, 8.8 mM PRPP, 17.6 mM MgCl2, enzyme purified through Mono Q, 70.0 °C) of 4.5 mM and a Km ([10]; other: enzymatic assays, summary of Figure 3 and Table 2, pH 6.8) of 4 mM.

B2: MTH0830 RFAP synthase D19N variant (Methanothermobacter thermautotrophicus str. Delta H; D19N) (protein)
chain: T1 sequence (O26918 1-329) with D19N
In the case of B2, the Km ([10]; other: 50 °C, 3 h, pH 6.8, 8.8 mM PRPP) is reported as 12 mM.

B3: MTH0830 RFAP synthase R26K variant (Methanothermobacter thermautotrophicus str. Delta H; R26K) (protein)
chain: T1 sequence (O26918 1-329) with R26K
With B3 the Km [11] was 38 mM and the Vmax [11] was 0.005 µmol/min/mg.
